The record followed here is patent US11420973B2, “Amide substituted indole compounds useful as TLR inhibitors” (BRISTOL-MYERS SQUIBB COMPANY, priority 2017, dated 2022).

Structures are written as SMILES.

One test deals with human TLR7 (Homo sapiens (Human), UniProt Q9NYK1). Nature of the test: TLR7 inhibition reporter assay (HEK-Blue SEAP reporter, gardiquimod stimulation). In kind it is cell-based. To be noted: HEK-Blue cells overexpressing human TLR7, gardiquimod 7.5 μM.
The next test has as its target human TLR8 (Homo sapiens (Human), UniProt Q9NR97). As to the kind of experiment: TLR8 inhibition reporter assay (HEK-Blue SEAP reporter, R848 stimulation).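 Further: SEAP driven by IFN-β minimal promoter with NF-κB and AP-1 sites, 22 h incubation, compounds 0.05 nM–50 µM, inhibition scaled between agonist plus DMSO and reference inhibitor wells.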 The note with it: read-out: TLR8 IC50; HEK-Blue cells overexpressing human TLR8, R848 15.9 μM, SEAP reporter.
In the next test the target is human TLR9 (Homo sapiens (Human), UniProt Q9NR96). As to the kind of experiment: TLR9 inhibition reporter assay (HEK-Blue SEAP reporter, ODN2006 stimulation).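 Further: SEAP reporter under IFN-β minimal promoter with five NF-κB and AP-1 sites, 22 h incubation, compounds 0.05 nM–50 µM, inhibition relative to agonist plus DMSO versus known inhibitor.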 To be noted: read-out: TLR9 IC50; HEK-Blue cells overexpressing human TLR9, ODN2006 5 nM, SEAP reporter.
Chain of human TLR9 (Q9NR96 26-1032): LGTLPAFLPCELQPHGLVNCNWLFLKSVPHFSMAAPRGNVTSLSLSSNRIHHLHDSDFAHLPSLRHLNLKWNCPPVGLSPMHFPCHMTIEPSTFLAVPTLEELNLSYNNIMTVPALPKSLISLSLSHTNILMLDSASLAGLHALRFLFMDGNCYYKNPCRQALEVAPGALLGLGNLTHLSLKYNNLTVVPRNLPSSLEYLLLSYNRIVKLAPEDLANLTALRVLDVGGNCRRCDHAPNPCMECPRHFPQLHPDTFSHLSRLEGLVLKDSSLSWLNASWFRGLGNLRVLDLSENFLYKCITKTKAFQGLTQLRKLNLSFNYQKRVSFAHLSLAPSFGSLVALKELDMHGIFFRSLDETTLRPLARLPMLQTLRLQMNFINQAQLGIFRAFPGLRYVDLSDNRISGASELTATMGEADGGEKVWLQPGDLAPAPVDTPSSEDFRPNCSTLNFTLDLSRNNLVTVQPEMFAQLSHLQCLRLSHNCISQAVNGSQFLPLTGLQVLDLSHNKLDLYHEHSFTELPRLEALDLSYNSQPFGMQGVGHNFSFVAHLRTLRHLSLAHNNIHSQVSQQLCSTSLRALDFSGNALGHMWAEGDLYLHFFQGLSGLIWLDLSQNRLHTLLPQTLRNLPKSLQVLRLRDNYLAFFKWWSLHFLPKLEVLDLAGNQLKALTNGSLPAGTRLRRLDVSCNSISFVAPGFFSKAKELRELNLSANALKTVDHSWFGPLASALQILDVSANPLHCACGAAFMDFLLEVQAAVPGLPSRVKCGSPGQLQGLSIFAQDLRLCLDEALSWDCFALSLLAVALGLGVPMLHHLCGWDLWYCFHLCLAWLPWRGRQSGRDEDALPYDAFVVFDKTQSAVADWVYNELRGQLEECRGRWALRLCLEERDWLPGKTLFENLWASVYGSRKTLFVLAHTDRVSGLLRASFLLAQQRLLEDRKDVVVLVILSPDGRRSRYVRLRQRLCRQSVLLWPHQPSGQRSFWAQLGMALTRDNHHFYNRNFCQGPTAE

Chain of human TLR7 (Q9NYK1 27-1049): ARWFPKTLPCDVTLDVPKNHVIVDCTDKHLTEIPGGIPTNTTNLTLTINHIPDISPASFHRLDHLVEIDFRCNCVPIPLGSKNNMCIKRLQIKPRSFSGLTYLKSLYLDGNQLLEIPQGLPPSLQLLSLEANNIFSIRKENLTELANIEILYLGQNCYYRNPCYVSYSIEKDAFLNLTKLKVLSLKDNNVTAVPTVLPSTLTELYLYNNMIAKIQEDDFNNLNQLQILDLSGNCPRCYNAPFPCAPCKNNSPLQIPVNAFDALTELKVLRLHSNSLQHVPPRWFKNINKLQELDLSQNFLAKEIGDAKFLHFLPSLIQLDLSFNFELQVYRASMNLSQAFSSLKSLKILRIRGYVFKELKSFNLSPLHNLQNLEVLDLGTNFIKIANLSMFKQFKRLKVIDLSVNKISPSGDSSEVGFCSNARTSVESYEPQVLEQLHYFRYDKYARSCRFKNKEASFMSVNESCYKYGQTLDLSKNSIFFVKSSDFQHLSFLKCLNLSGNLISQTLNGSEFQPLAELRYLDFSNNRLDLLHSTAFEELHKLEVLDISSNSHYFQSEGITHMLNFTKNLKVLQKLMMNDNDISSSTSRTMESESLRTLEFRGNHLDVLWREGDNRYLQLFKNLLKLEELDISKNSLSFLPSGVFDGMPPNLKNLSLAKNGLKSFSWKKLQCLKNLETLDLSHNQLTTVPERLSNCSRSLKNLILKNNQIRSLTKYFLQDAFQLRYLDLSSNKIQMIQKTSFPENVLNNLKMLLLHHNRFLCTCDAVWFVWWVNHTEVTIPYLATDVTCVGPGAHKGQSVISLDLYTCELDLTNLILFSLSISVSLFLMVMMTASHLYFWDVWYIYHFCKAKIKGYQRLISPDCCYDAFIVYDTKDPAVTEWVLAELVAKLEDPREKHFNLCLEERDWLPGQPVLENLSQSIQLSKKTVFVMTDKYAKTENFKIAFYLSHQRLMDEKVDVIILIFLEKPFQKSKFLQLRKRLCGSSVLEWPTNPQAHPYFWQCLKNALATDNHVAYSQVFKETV
Chain of human TLR8 (Q9NR97 27-1041): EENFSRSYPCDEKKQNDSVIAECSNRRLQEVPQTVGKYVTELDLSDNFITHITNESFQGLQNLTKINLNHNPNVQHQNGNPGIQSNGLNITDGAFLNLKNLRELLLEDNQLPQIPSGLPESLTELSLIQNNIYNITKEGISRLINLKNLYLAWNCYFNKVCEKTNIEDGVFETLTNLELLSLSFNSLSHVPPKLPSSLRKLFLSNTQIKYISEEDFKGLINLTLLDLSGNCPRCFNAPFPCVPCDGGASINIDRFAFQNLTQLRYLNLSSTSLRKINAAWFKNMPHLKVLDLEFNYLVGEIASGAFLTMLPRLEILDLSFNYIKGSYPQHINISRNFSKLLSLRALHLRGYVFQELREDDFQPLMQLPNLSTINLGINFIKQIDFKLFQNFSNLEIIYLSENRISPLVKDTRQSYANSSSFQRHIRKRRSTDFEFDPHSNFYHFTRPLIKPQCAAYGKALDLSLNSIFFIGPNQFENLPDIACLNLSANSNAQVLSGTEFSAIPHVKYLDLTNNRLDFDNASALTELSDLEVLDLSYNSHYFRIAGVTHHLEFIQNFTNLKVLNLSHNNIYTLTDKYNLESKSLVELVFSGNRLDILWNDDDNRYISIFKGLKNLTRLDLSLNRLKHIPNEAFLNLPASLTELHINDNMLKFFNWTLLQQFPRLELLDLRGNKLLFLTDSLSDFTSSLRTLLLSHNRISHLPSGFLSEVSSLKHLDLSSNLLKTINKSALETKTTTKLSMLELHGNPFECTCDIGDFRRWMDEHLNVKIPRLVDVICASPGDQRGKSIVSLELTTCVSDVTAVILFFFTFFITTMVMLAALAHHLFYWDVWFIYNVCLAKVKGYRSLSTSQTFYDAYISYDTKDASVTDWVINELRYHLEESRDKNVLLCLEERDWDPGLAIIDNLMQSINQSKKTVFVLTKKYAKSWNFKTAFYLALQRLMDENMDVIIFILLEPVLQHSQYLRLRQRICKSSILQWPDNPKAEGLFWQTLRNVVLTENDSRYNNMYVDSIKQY
Procedure for human TLR9: HEK-Blue™-cells (Invivogen) overexpressing human TLR7, TLR8 or TLR9 receptors were used for screening inhibitors of these receptors using an inducible SEAP (secreted embryonic alkaline phosphatase) reporter gene under the control of the IFN-β minimal promoter fused to five NF-κB and AP-1-binding sites. Briefly, cells are seeded into Greiner 384 well plates (15000 cells per well for TLR7, 20,000 for TLR8 and 25,000 for TLR9) and then treated with test compounds in DMSO to yield a final dose response concentration range of 0.05 nM-50 μM. After a 30 minute compound pre-treatment at room temperature, the cells are then stimulated with a TLR7 ligand (gardiquimod at a final concentration of 7.5 μM), TLR8 ligand (R848 at a final concentration of 15.9 μM) or TLR9 ligand (ODN2006 at a final concentration of 5 nM) to activate NF-κB and AP-1 which induce the production of SEAP. After a 22 hour incubation at 37° C., 5% CO2, SEAP levels are determined with the addition of HEK-Blue™ Detection reagent (Invivogen), a cell culture medium that allows for detection of SEAP, according to manufacturer's specifications.

As to `CCN(CC)C(=O)C1CCCN(CC(=O)N2CC3CN(C(=O)c4ccc5[nH]c(-c6ccc(OC)c(OC)c6)c(C(C)C)c5c4)CC3C2)C1` (racemic) [Example 8, 1-(2-{5-[2-(3,4-dimethoxyphenyl)-3-(propan-2-yl)-1H-indole-5-carbonyl]-octahydropyrrolo[3,4-c]pyrrol-2-yl}-2-oxoethyl)-N,N-diethylpiperidine-3-carboxamide], the IC50 on human TLR7 amounted to 129 nM; on human TLR8 it was 126 nM; on human TLR9, 7520 nM.

With `CCN(CC)C(=O)C1CCCN(CC(=O)N2CC3CN(C(=O)c4ccc5[nH]c(-c6ccc(OC)c(OC)c6)c(C(C)C)c5c4)CC3C2)C1` (single isomer, unassigned) [Example 10, 1-(2-{5-[2-(3,4-dimethoxyphenyl)-3-(propan-2-yl)-1H-indole-5-carbonyl]-octahydropyrrolo[3,4-c]pyrrol-2-yl}-2-oxoethyl)-N,N-diethylpiperidine-3-carboxamide], the half-inhibitory concentration (IC50) came to 111 nM on human TLR7, 114 nM at human TLR8 and 7630 nM at human TLR9.

Regarding `CCN(CC)C(=O)C1CCCN(CC(=O)N2CC3CN(C(=O)c4ccc5[nH]c(-c6ccc(OC)c(OC)c6)c(C(C)C)c5c4)CC3C2)C1` (single isomer, unassigned) [Example 11, 1-(2-{5-[2-(3,4-dimethoxyphenyl)-3-(propan-2-yl)-1H-indole-5-carbonyl]-octahydropyrrolo[3,4-c]pyrrol-2-yl}-2-oxoethyl)-N,N-diethylpiperidine-3-carboxamide], the figures for the IC50 at human TLR7, on human TLR8 and at human TLR9 were 606 nM, 645 nM and 36000 nM, respectively.

On to `COc1ccc(-c2[nH]c3ccc(C(=O)N4CC5CNCC5C4)cc3c2C(C)C)cc1OC` (centres unmarked) [Example 1, 2-(3,4-dimethoxyphenyl)-5-{octahydropyrrolo[3,4-c]pyrrole-2-carbonyl}-3-(propan-2-yl)-1H-indole], for which the values for the half-maximal inhibitory concentration (IC50) against human TLR7, on human TLR8 and on human TLR9 were 30 nM, 49 nM and 375 nM, respectively.

As for `COc1ccc(-c2[nH]c3ccc(C(=O)N4CCCN(C)CC4)cc3c2C(C)C)cc1OC` [Example 2, (2-(3,4-dimethoxyphenyl)-3-isopropyl-1H-indol-5-yl)(4-methyl-1,4-diazepan-1-yl)methanone], the figures for the concentration for half-maximal inhibition (IC50) against human TLR7, on human TLR8 and on human TLR9 were 45 nM, 4 nM and 3010 nM, respectively.

In the case of `COc1ccc(-c2[nH]c3ccc(C(=O)N(C)C)cc3c2C(C)C)cc1OC` [Example 3, 2-(3,4-dimethoxyphenyl)-3-isopropyl-N,N-dimethyl-1H-indole-5-carboxamide], the results for the IC50 against human TLR7, on human TLR8 and at human TLR9 were 153 nM, 79 nM and > 50000 nM, respectively.

As to `CNC(=O)c1ccc2[nH]c(-c3ccc(OC)c(OC)c3)c(C(C)C)c2c1` [Example 4, 2-(3,4-dimethoxyphenyl)-3-isopropyl-N-methyl-1H-indole-5-carboxamide], the IC50 on human TLR7 was determined as 145 nM; at human TLR8, 27 nM; at human TLR9 it was 30500 nM.

With `COc1ccc(-c2[nH]c3ccc(C(=O)N4C[C@@H]5C[C@H]4CN5)cc3c2C(C)C)cc1OC` [Example 5, ((1S,4S)-2,5-diazabicyclo[2.2.1]heptan-2-yl)(2-(3,4-dimethoxyphenyl)-3-isopropyl-1H-indol-5-yl)methanone], the figures for the IC50 at human TLR7, at human TLR8 and on human TLR9 were 43 nM, 43 nM and 1380 nM, respectively.

With `COc1ccc(-c2[nH]c3ccc(C(=O)N4CC5CN(CC(=O)N(C)C)CC5C4)cc3c2C(C)C)cc1OC` (centres unmarked) [Example 6, 2-{5-[2-(3,4-dimethoxyphenyl)-3-(propan-2-yl)-1H-indole-5-carbonyl]-octahydropyrrolo [3,4-c]pyrrol-2-yl}-N,N-dimethylacetamide], the IC50 against human TLR7 is 180 nM; at human TLR8 it was 180 nM; on human TLR9, 5230 nM.

Turning to `CNC(=O)CN1CC2CN(C(=O)c3ccc4[nH]c(-c5ccc(OC)c(OC)c5)c(C(C)C)c4c3)CC2C1` (centres unmarked) [Example 7, 2-(5-(2-(3,4-dimethoxyphenyl)-3-isopropyl-1H-indole-5-carbonyl)hexahydropyrrolo[3,4-c]pyrrol-2(1H)-yl)-N-methylacetamide], the IC50 against human TLR7 came to 343 nM; at human TLR8, 267 nM; on human TLR9, 4020 nM.

On to `COc1ccc(-c2[nH]c3ccc(C(=O)N4CC5CN(C(=O)CN(C)C)CC5C4)cc3c2C(C)C)cc1OC` (centres unmarked) [Example 9, 1-(5-(2-(3,4-dimethoxyphenyl)-3-isopropyl-1H-indole-5-carbonyl)hexahydropyrrolo[3,4-c]pyrrol-2(1H)-yl)-2-(dimethylamino)ethan-1-one], for which the figures for the half-inhibitory concentration (IC50) against human TLR7, at human TLR8 and on human TLR9 were 76 nM, 54 nM and 5350 nM, respectively.

`CNCCN1CC2CN(C(=O)c3ccc4[nH]c(-c5ccc(OC)c(OC)c5)c(C(C)C)c4c3)CC2C1` (centres unmarked) [Example 12, (2-(3,4-dimethoxyphenyl)-3-isopropyl-1H-indol-5-yl)(5-(2-(methylamino)ethyl)hexahydropyrrolo[3,4-c]pyrrol-2(1H)-yl)methanone]: the IC50 stood at 274 nM against human TLR7, 175 nM on human TLR8 and 1220 nM on human TLR9.

Turning to `COc1ccc(-c2[nH]c3ccc(C(=O)N4CC5CN(C)CC5C4)cc3c2C(C)C)cc1OC` (centres unmarked) [Example 13, (2-(3,4-dimethoxyphenyl)-3-isopropyl-1H-indol-5-yl)(5-methylhexahydropyrrolo[3,4-c]pyrrol-2(1H)-yl)methanone], the half-inhibitory concentration (IC50) is 61 nM on human TLR7, 61 nM on human TLR8 and 2160 nM at human TLR9.

Regarding `CCc1c(-c2ccc(OC)c(OC)c2)[nH]c2ccc(C(=O)NC3CCC(N(C)C)CC3)cc12` (centres unmarked) [Example 19, 2-(3,4-dimethoxyphenyl)-N-(4-(dimethylamino)cyclohexyl)-3-ethyl-1H-indole-5-carboxamide], the IC50 came out at 104 nM against human TLR7 and 1390 nM on human TLR9.

As for `CCc1c(-c2ccc(OC)c(OC)c2)[nH]c2ccc(C(=O)N3CCC(N(C)C)CC3)cc12` [Example 31, (2-(3,4-dimethoxyphenyl)-3-ethyl-1H-indol-5-yl)(4-(dimethylamino)piperidin-1-yl)methanone], the IC50 is 296 nM on human TLR7 and 4930 nM on human TLR9.

Turning to `CCc1c(-c2ccc(OC)c(OC)c2)[nH]c2ccc(C(=O)N3CCN(C4CCN(C)CC4)CC3)cc12` [Example 36, (2-(3,4-dimethoxyphenyl)-3-ethyl-1H-indol-5-yl)(4-(1-methylpiperidin-4-yl)piperazin-1-yl)methanone], the values for the IC50 against human TLR7 and at human TLR9 were 138 nM and 1930 nM, respectively.

Turning to `CCc1c(-c2ccc(OC)c(OC)c2)[nH]c2ccc(C(=O)N[C@H]3CC[C@H](N)CC3)cc12` [Example 47, N-((1r,4r)-4-aminocyclohexyl)-2-(3,4-dimethoxyphenyl)-3-ethyl-1H-indole-5-carboxamide], the IC50 was found to be 150 nM against human TLR7 and 2790 nM at human TLR9.

Regarding `CCc1c(-c2ccc(OC)c(OC)c2)[nH]c2ccc(C(=O)NCCN3CCCCC3)cc12` [Example 49, 2-(3,4-dimethoxyphenyl)-3-ethyl-N-(2-(piperidin-1-yl)ethyl)-1H-indole-5-carboxamide], the IC50 against human TLR7 was found to be 144 nM; on human TLR9 it was 2410 nM.

Consider `CCc1c(-c2ccc(OC)c(OC)c2)[nH]c2ccc(C(=O)NCCc3ccncc3)cc12` [Example 50, 2-(3,4-dimethoxyphenyl)-3-ethyl-N-(2-(pyridin-4-yl)ethyl)-1H-indole-5-carboxamide], for which the IC50 on human TLR7 was found to be 382 nM; at human TLR9 it was 19900 nM.

On to `CCc1c(-c2ccc(OC)c(OC)c2)[nH]c2ccc(C(=O)NCCc3cccnc3)cc12` [Example 51, 2-(3,4-dimethoxyphenyl)-3-ethyl-N-(2-(pyridin-3-yl)ethyl)-1H-indole-5-carboxamide], for which the IC50 at human TLR7 was 705 nM; at human TLR9, > 50000 nM.

As for `CCc1c(-c2ccc(OC)c(OC)c2)[nH]c2ccc(C(=O)N3CCN(c4cnccn4)CC3)cc12` [Example 58, (2-(3,4-dimethoxyphenyl)-3-ethyl-1H-indol-5-yl)(4-(pyrazin-2-yl)piperazin-1-yl)methanone], the results for the IC50 against human TLR7 and on human TLR8 were 194 nM and 110 nM, respectively.

Take `CCc1c(-c2ccc(OC)c(OC)c2)[nH]c2ccc(C(=O)N3CCN(c4ccccn4)CC3)cc12` [Example 59, (2-(3,4-dimethoxyphenyl)-3-ethyl-1H-indol-5-yl)(4-(pyridin-2-yl)piperazin-1-yl)methanone]: the IC50 was 1140 nM on human TLR7 and > 50000 nM at human TLR9.

For the molecule `Cc1cc(-c2[nH]c3ccc(C(C)C(=O)NCCC(C)(C)O)cc3c2C(C)C)ccn1` (centres unmarked) [Example 132, N-(3-hydroxy-3-methylbutyl)-2-(3-isopropyl-2-(2-methylpyridin-4-yl)-1H-indol-5-yl)propanamide], the IC50 on human TLR7 was 947 nM; at human TLR8 it was 964 nM.

For the molecule `Cc1cc(-c2[nH]c3ccc(C(C)(C)C(=O)N4CCCC(CCN)C4)cc3c2C(C)C)ccn1` (centres unmarked) [Example 154, 1-(3-(2-aminoethyl)piperidin-1-yl)-2-(3-isopropyl-2-(2-methylpyridin-4-yl)-1H-indol-5-yl)-2-methylpropan-1-one], the results for the IC50 against human TLR7 and at human TLR8 were 58 nM and 256 nM, respectively.

Take `Cc1c(-c2[nH]c3ccc(C(=O)N4CCN(C)CC4)cc3c2C(C)C)cn(C)c(=O)c1Cl` [Example 220, 3-chloro-5-(3-isopropyl-5-(4-methylpiperazine-1-carbonyl)-1H-indol-2-yl)-1,4-dimethylpyridin-2(1H)-one]: the values for the IC50 against human TLR7 and at human TLR8 were 141 nM and 2.1 nM, respectively.

As to `CCCN1CCC(N(C(=O)c2ccc3[nH]c(-c4cn(C)c(=O)c(Cl)c4C)c(C(C)C)c3c2)C2CC2)CC1` [Example 221, 2-(5-chloro-1,4-dimethyl-6-oxo-1,6-dihydropyridin-3-yl)-N-cyclopropyl-3-isopropyl-N-(1-propylpiperidin-4-yl)-1H-indole-5-carboxamide], the IC50 was 0.7 nM on human TLR8 and 2940 nM at human TLR9.
